Reference: PMC9841523 (Journal of Medicinal Chemistry, 2022)
Like-named read-outs stand apart in the source and are kept apart here.

Experiments:
PI3K-ALPHA = target: T1, PI3K-ALPHA (Homo sapiens, UniProt P42336); assay: Nanosyn Lipid Kinase screen; type: biochemical
T1 construct: purchased BPS lot #110809
Experimental: (§1) complex formation) controls.
(§2) Nanosyn Lipid Kinase screen. Biochemical inhibition of lipid and related protein kinases was determined by Nanosyn (Santa Clara, CA). […]
(§3) was determined by detection of fluorescent substrates using a microfluidic electrophoresis mobility shift assay with a LabChip3000 instrument (Caliper/PerkinElmer). Bodipy labeled phosphatidylinositol 4,5 phosphate (FL-PIP2) (Echelon Biosciences, Salt Lake City, Utah) with 1,2-dioctanoyl-sn-glycero-3-phospho-L-serine (PS) (Avanti Polar Lipids (Alabaster, AL) was […]
(§4) of DNA-PK (Promega, Cat#V4106) on a peptide/dsDNA complex was assayed by detection of ADP formation using ADP-Glo (Promega). Kinase reactions were assembled in 384 well plates in a total volume of 20 µL as follows. For PI3K isoforms, the kinase protein was pre-diluted to 2x concentration in the assay buffer (50 mM HEPES, pH 7.5, 1 mM DTT, 5 mM MgCl 2, 0.01% […]
(§5) well plate (10 µL per well). Compounds were serially pre-diluted in DMSO and added to the protein samples by acoustic dispensing (200 nL, Labcyte Echo). Concentration of DMSO was equalized to 1% in all samples. All test compounds were tested at 12 concentrations, 3x dilution intervals. The control samples (0%-inhibition in the absence of inhibitor, DMSO only) and 100%-inhibition (in the absence of enzyme) were assembled in replicates of four and were used to calculate %-inhibition in the presence of compounds. After 30 min of pre-incubation with compounds, the reactions were initiated by addition of 10 µL of FL-PIP2/PS substrate (10 µM […]
(§6) (PI3Kα,β), 0.5 nM (PI3Kδ) and 10 nM (PI3Kγ). Final concentration of ATP was 100 µM.
(§7) Following incubation, the reactions were quenched by addition of 50 µL of termination buffer (100 mM HEPES, pH 7.5,

PI3K-BETA = target: T2, PI3K-BETA (Homo sapiens, UniProt P42338); assay: Nanosyn Lipid Kinase screen; type: biochemical
T2 construct: purchased Carna lot # 12CBS-0359H
T2 sequence (P42338 whole entry, species assumed): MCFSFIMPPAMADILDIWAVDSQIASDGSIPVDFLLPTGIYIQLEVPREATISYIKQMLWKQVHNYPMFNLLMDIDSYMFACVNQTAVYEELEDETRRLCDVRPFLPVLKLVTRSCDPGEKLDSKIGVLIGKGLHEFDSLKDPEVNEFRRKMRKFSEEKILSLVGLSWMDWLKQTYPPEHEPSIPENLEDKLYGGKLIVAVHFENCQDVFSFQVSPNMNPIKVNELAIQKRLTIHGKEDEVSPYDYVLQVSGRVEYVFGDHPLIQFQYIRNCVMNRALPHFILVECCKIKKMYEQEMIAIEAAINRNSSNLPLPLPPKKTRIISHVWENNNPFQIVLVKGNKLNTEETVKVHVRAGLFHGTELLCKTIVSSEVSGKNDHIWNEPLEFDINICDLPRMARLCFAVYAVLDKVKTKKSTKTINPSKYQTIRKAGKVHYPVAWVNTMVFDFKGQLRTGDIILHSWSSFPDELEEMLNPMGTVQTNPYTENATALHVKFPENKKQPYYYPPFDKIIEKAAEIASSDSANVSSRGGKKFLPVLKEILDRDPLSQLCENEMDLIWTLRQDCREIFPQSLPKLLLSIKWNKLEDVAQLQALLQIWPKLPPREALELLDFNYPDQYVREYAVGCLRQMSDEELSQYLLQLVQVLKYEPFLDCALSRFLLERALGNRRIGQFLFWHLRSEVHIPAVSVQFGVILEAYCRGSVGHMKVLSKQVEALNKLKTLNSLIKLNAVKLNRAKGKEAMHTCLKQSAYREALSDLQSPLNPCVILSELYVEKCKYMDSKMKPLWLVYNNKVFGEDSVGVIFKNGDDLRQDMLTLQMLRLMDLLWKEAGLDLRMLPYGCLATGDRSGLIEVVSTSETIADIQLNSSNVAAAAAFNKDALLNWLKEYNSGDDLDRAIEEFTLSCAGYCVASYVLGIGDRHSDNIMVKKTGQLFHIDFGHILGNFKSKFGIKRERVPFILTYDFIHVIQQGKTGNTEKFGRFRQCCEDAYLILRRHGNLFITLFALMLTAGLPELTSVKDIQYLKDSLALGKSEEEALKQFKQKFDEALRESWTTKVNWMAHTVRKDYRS
T2 sequence (P27986 whole entry partner, species assumed): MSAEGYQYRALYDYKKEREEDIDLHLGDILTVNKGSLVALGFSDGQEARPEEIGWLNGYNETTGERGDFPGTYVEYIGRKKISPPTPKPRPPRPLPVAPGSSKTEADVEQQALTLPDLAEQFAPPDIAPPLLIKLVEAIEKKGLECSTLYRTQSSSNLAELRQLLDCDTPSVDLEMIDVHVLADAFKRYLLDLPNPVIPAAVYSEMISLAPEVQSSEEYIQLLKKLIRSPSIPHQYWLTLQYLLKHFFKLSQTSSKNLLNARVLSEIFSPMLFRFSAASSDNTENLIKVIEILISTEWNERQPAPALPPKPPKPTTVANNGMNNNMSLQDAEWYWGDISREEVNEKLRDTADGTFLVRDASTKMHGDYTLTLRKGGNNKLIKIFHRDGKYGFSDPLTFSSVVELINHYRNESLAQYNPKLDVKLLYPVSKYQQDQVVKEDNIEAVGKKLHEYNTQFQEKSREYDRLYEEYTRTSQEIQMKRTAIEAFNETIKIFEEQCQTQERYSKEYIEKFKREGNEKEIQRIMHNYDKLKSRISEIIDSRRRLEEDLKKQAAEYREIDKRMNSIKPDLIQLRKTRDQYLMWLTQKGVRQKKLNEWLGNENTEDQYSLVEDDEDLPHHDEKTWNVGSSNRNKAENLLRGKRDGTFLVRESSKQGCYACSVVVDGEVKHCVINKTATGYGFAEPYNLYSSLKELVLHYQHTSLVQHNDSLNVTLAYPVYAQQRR
T2 sequence (P62942 whole entry partner, species assumed): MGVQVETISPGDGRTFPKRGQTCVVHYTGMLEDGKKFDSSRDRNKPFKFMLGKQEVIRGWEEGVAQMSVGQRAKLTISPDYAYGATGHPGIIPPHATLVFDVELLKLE
Experimental: as §1, §2, §3, §4, §5, §6, §7

PI3K-DELTA = target: T3, PI3K-DELTA (Homo sapiens, UniProt O00329); assay: Nanosyn Lipid Kinase screen; type: biochemical
T3 construct: purchased Carna lot#09CBS-1198D
T3 sequence (O00329 whole entry, species assumed): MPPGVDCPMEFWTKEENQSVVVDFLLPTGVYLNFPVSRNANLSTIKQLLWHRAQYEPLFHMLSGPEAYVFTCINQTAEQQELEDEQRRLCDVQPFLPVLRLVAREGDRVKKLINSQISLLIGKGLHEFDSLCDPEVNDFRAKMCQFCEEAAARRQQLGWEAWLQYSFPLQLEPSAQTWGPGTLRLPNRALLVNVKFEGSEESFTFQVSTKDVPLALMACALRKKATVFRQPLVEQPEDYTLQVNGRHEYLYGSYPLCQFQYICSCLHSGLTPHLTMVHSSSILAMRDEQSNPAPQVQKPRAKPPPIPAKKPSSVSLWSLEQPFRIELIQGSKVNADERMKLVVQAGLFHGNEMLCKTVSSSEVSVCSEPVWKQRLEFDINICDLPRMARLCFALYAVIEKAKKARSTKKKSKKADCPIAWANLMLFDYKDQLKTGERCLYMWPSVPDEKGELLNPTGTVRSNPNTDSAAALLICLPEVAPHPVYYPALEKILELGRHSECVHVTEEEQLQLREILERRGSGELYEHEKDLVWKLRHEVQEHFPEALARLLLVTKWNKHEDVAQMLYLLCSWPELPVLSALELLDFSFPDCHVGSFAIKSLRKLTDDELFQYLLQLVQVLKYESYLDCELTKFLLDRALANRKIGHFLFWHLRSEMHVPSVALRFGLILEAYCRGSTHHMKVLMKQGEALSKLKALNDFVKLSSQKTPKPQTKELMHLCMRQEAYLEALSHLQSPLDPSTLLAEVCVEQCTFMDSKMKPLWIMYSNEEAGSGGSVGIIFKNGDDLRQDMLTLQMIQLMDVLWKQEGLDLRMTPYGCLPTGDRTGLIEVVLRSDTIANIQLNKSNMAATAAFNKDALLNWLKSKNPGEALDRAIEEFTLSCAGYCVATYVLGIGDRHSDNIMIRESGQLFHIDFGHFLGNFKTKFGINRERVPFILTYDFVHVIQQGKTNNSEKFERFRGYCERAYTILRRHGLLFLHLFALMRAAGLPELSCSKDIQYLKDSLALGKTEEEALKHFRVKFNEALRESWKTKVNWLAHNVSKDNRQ
T3 sequence (P27986 whole entry partner, species assumed): as the sequence (P27986 whole entry partner, species assumed) above
T3 sequence (P62942 whole entry partner, species assumed): as the sequence (P62942 whole entry partner, species assumed) above
Experimental: as §1, §2, §3, §4, §5, §6, §7

PI3K-GAMMA = target: T4, PI3K-GAMMA (Homo sapiens, UniProt P48736); assay: Nanosyn Lipid Kinase screen; type: biochemical
T4 construct: purchased Thermo Fisher lot#1716438D
Experimental: as §1, §2, §3, §4, §5, §6, §7

mTORC1 = target: T5, mTORC1 (Homo sapiens, UniProt P42345+P62942); assay: Nanosyn Lipid Kinase screen; type: biochemical
T5 construct: purchased BPS lot # 150818-A
Experimental: as §1, §2, §3, §4, §5, §6, §7

CHK1 = target: T6, CHK1 (Homo sapiens, UniProt O14757); assay: KiNativ kinase panel; type: cell-based; conditions: 1 μM, MCF-7 Cells
T6 construct: host or cells: MCF7
T6 sequence (O14757 1-476): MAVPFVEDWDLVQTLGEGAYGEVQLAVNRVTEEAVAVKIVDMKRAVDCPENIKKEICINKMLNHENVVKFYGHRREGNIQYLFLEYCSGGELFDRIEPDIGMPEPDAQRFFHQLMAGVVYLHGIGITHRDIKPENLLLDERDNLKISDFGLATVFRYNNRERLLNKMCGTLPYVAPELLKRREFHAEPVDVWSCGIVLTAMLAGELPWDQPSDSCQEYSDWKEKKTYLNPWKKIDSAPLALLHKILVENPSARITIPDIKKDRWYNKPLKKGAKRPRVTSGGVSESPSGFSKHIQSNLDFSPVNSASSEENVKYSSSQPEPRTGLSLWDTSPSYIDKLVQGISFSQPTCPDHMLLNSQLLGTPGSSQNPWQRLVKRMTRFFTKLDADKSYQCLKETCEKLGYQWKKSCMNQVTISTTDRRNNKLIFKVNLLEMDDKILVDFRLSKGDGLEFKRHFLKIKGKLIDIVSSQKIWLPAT

DLK = target: T7, DLK (Homo sapiens, UniProt Q12852); assay: KiNativ kinase panel; type: cell-based; conditions: 1 μM; MCF-7 Cells; Lys2; DLKSPNMLITYDDVVK
T7 construct: endogenous in cells; host or cells: MCF7
T7 sequence (Q12852 whole entry): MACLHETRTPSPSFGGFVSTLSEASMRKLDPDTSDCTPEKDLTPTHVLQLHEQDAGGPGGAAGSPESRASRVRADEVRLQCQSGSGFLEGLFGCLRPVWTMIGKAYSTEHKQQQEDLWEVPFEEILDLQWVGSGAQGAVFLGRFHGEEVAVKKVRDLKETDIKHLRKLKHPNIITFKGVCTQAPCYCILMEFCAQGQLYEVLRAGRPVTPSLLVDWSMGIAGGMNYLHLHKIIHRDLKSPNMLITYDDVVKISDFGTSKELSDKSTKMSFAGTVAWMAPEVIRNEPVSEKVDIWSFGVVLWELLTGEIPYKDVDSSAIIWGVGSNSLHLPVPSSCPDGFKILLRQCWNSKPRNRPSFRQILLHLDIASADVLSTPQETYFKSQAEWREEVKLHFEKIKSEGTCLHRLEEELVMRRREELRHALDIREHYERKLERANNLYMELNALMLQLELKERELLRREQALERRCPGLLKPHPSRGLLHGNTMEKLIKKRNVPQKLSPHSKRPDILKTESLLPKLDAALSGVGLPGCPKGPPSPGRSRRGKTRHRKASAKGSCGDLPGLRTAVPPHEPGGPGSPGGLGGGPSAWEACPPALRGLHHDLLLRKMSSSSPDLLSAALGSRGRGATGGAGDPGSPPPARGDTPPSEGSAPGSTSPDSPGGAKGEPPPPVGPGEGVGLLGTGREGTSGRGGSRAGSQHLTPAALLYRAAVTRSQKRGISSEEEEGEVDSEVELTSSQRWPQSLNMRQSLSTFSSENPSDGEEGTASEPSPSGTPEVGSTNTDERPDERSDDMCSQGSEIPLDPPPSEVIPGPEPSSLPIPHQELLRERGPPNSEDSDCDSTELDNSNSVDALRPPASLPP

MAPKAPK2, MAPKAPK3 = assay: KiNativ kinase panel; type: cell-based, human; conditions: 1 μM, MCF-7 Cells, Lys2
MAST1, MAST2 = assay: KiNativ kinase panel; type: cell-based, human; conditions: 1 μM, MCF-7 Cells, Lys2
MST1 = target: T8, MST1 (Homo sapiens, UniProt Q13043); assay: KiNativ kinase panel; type: cell-based; conditions: 1 μM; MCF-7 Cells; Lys1; ETGQIVAIKQVPVESDLQEIIK
T8 construct: purchased ActivX Biosciences (KiNativ)
T8 sequence (Q13043 whole entry): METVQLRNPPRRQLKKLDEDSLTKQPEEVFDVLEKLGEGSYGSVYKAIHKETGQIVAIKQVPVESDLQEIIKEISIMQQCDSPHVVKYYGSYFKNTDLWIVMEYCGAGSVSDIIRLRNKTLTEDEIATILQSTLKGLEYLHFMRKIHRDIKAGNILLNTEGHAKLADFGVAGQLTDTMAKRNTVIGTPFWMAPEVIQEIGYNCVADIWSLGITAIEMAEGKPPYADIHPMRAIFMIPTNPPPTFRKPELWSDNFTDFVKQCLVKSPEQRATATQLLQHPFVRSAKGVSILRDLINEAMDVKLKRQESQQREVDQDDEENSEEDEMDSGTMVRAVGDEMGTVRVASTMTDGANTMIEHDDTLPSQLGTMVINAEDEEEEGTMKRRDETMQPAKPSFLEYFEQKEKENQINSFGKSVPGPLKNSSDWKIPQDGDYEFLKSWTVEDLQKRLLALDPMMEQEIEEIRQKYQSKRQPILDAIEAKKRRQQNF

PI4KA, PI4KAP2 = assay: KiNativ kinase panel; type: cell-based, human; conditions: 1 μM, MCF-7 Cells, ATP
[1] = system: RSK1 domain1, RSK2 domain1, RSK3 domain1; assay: KiNativ kinase panel; type: cell-based, human; conditions: 1 μM; MCF-7 Cells; Lys2; DLKPENILLDEEGHIK
Wnk1, Wnk2, Wnk3 = assay: KiNativ kinase panel; type: cell-based, human; conditions: 1 μM; MCF-7 Cells; Lys2; DLKCDNIFITGPTGSVK
[2] = system: BZD (central) (agonist radioligand); assay: Eurofins Safety Screen 44; type: binding; conditions: 10 µM
[3] = target: T9, D1(h) (antagonist radioligand) (Homo sapiens, UniProt P21728); assay: Eurofins Safety Screen 44; type: binding; conditions: read-out: % Inhibition of Control Values
T9 construct: purchased ActivX Biosciences (KiNativ)

[4] = target: T10, H1(h) (antagonist radioligand) (Homo sapiens, UniProt P35367); assay: Eurofins Safety Screen 44; type: binding; conditions: read-out: % Inhibition of Control Values
T10 construct: purchased ActivX Biosciences (KiNativ)

[5] = system: KV channel (antagonist radioligand); assay: Eurofins Safety Screen 44; type: binding; conditions: 10 µM
COX2(h) = target: T11, COX2(h) (Homo sapiens, UniProt P35354); assay: Eurofins Safety Screen 44; type: biochemical; conditions: read-out: % Inhibition of Control Values
T11 construct: Eurofins (ran the panel)

PDE4D2 (h) = target: T12, PDE4D2 (h) (Homo sapiens, UniProt Q08499); assay: Eurofins Safety Screen 44; type: biochemical; conditions: read-out: % Inhibition of Control Values
T12 construct: Eurofins (ran the panel)

acetylcholinesterase (h) = target: T13, acetylcholinesterase (h) (Homo sapiens, UniProt P22303); assay: Eurofins Safety Screen 44; type: biochemical; conditions: read-out: % Inhibition of Control Values
T13 construct: Eurofins (ran the panel)
T13 sequence (P22303 32-614): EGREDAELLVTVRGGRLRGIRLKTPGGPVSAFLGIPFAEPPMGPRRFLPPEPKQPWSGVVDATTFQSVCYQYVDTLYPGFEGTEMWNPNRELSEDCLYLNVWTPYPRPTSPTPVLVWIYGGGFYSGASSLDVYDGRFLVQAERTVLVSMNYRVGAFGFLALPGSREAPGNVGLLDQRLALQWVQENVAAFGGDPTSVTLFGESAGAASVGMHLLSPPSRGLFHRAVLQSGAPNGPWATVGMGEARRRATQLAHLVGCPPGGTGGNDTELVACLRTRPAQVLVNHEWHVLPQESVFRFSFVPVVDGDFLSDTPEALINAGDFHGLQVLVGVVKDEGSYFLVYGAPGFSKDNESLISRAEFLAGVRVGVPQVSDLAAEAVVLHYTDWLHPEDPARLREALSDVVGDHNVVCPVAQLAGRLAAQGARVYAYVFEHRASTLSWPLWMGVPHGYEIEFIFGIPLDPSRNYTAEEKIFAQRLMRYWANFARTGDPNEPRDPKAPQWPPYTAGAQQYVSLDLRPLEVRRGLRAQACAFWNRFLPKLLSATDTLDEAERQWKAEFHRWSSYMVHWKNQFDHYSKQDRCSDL

hERG potassium channel = hERG potassium channel (Homo sapiens, UniProt Q12809); assay: Eurofins Safety Screen 44; conditions: probe [3H] Dofetilide
[6] = system: Safety Screen 44 off-targets; assay: Eurofins Safety Screen 44, whole panel; conditions: 10 µM

With `CO[C@H]1C[C@@H]2CC[C@@H](C)[C@@](O)(O2)C(=O)C(=O)N2CCCC[C@H]2C(=O)O[C@H]([C@H](C)C[C@@H]2CC[C@@H](OC(=O)NCCOCCOCCOCCOCCOCCOCCOCCOCCC(=O)NCCS(=O)(=O)c3ccc(C(=O)N4CCOc5ccc(-c6ccc(N)nc6)cc5C4)c(C)c3F)[C@H](OC)C2)C[C@@H](O)[C@H](C)/C=C(\C)[C@@H](O)[C@@H](OC)C(=O)[C@H](C)C[C@H](C)/C=C/C=C/C=C/1C` [compound 40] the IC50 (PI3K-ALPHA; Nanosyn, with FKBP12, read-out: PI3K-ALPHA IC50) was greater than 1000 nM, the IC50 (PI3K-BETA; Nanosyn, with FKBP12) was greater than 1000 nM and the IC50 (PI3K-DELTA; Nanosyn, with FKBP12, read-out: PI3K-DELTA IC50) was greater than 1000 nM. For the same compound, the IC50 (PI3K-GAMMA; Nanosyn, with FKBP12, read-out: PI3K-GAMMA IC50) was greater than 1000 nM, the IC50 (mTORC1; read-out: mTORC1 IC50, Nanosyn, with FKBP12) was 0.473 nM and the “KiNativ Kinase Panel Data” value (CHK1; Lys2, DIKPENLLLDER) was -10.9. The “KiNativ Kinase Panel Data” value (CHK1; Other, LSKGDGLEFK) was 19.6, the “KiNativ Kinase Panel Data” value (DLK) was -20.3 and the “KiNativ Kinase Panel Data” value (MAPKAPK2, MAPKAPK3; DVKPENLLYTSK) was -27.1. For the same compound, the “KiNativ Kinase Panel Data” value (MAST1, MAST2; DLKPDNLLITSMGHIK) was 22.5, the “KiNativ Kinase Panel Data” value (MST1) was 18.2 and the “KiNativ Kinase Panel Data” value (PI4KA, PI4KAP2; SGTPMQSAAKAPYLAK) was -5.7. For the same compound, the “KiNativ Kinase Panel Data” value [1] was 27.4 and the “KiNativ Kinase Panel Data” value (Wnk1, Wnk2, Wnk3) was -40.3.

In the case of `CO[C@H]1C[C@@H]2CC[C@@H](C)[C@@](O)(O2)C(=O)C(=O)N2CCCC[C@H]2C(=O)O[C@H]([C@H](C)C[C@@H]2CC[C@@H](OC(=O)NCCOCCOCCOCCOCCOCCOCCOCCOCCC(=O)N3CCc4cc(Cn5nc(-c6ccc7oc(N)nc7c6)c6c(N)ncnc65)ccc4C3)[C@H](OC)C2)C[C@@H](O)[C@H](C)/C=C(\C)[C@@H](O)[C@@H](OC)C(=O)[C@H](C)C[C@H](C)/C=C/C=C/C=C/1C` [compound 38], the IC50 (PI3K-ALPHA) is reported as 41.2 nM, the IC50 (PI3K-BETA) is reported as greater than 1000 nM and the IC50 (PI3K-DELTA) is reported as 95 nM. For the same compound, the IC50 (PI3K-GAMMA) was greater than 1000 nM, the IC50 (mTORC1) was 0.774 nM and the “% Inhibition of Control Values” [2] was 3.3%. The inhibition at 10 µM [3] was -0.5%, the inhibition at 10 µM [4] was -12.6% and the “% Inhibition of Control Values” [5] was -8.0%. For the same compound, the inhibition at 10 µM (COX2(h)) was 4.4%, the inhibition at 10 µM (PDE4D2 (h)) was -45.6% and the inhibition at 10 µM (acetylcholinesterase (h)) was -15.4%. The “KiNativ Kinase Panel Data” value (CHK1; Lys2, […]) was -13.6, the “KiNativ Kinase Panel Data” value (CHK1; Other, […]) was 25.4 and the “KiNativ Kinase Panel Data” value (DLK) was -43.9. For the same compound, the “KiNativ Kinase Panel Data” value (MAPKAPK2, MAPKAPK3; […]) was -19.9, the “KiNativ Kinase Panel Data” value (MAST1, MAST2; […]) was 19.6 and the “KiNativ Kinase Panel Data” value (MST1) was 10.7. The “KiNativ Kinase Panel Data” value (PI4KA, PI4KAP2; […]) was -38.9, the inhibition at 10 µM (hERG potassium channel) was -1.2% and the “Eurofins Safety Screen 44 inhibition” value [6] was <5% inhibition (low promiscuity). The “Eurofins Safety Screen 44 result” value [6] was “no significant inhibition”.
